Measured values from ChEMBL document CHEMBL5385846, “Discovery and development of palmatine analogues as anti-NASH agents by activating farnesoid X receptor (FXR)” (Eur J Med Chem, 2023).
Active and inactive are the calls of the source. The calls are words filed in the database; no cut-off is given here.

Columns and labels:
[1] = molecular target: Collagen alpha-1(I) chain (Homo sapiens) (UniProt P02452); test: Inhibition of COL1A1 (unknown origin) expressed in human LX2 cells at 20 micromol/L incubated for 48 hrs by Bright-Glo luciferase assay relative to control; type: cell-based; conditions: dose 20.0 µmol/L
[2] = Cytotoxicity against human LX2 cells assessed as inhibition of cell growth; type: toxicity, cell-based, LX-2
COL1A1 = test: Selectivity index, ratio of CC50 for cytotoxicity against human LX2 cells to IC50 for inhibition of COL1A1 (unknown origin) expressed in human LX2 cells; type: toxicity, cell-based; conditions: read-out: Ratio CC50/IC50
Mus musculus [3] = test: Hepatoprotective activity in CDAHFD induced C57BL/6N mouse liver injury model assessed as decrease in total cholesterol at 15 mg/kg,po qd administration for 4 weeks; type: functional, organism-based
Mus musculus [4] = test: Hepatoprotective activity in CDAHFD induced C57BL/6N mouse liver injury model assessed as decrease in triglyceride level at 15 mg/kg,po qd administration for 4 weeks; type: functional, organism-based
Mus musculus [5] = test: Hepatoprotective activity in CDAHFD induced C57BL/6N mouse liver injury model assessed as effect on glucose level at 15 mg/kg,po qd administration for 4 weeks; type: functional, organism-based
Mus musculus [6] = test: Hepatoprotective activity in CDAHFD induced C57BL/6N mouse liver injury model assessed as effect on HDL level at 15 mg/kg,po qd administration for 4 weeks; type: functional, organism-based
Mus musculus [7] = test: Hepatoprotective activity in CDAHFD induced C57BL/6N mouse liver injury model assessed as effect on total bilirubin level at 15 mg/kg,po qd administration for 4 weeks; type: functional, organism-based
Mus musculus [8] = test: Hepatoprotective activity in CDAHFD induced C57BL/6N mouse liver injury model assessed as effect on LDL level at 15 mg/kg,po qd administration for 4 weeks; type: functional, organism-based
Mus musculus [9] = test: Hepatoprotective activity in CDAHFD induced C57BL/6N mouse liver injury model assessed as effect on LDH level at 15 mg/kg,po qd administration for 4 weeks; type: functional, organism-based
Mus musculus [10] = test: Hepatoprotective activity in CDAHFD induced C57BL/6N mouse liver injury model assessed as effect on ALP level at 15 mg/kg,po qd administration for 4 weeks; type: functional, organism-based
Mus musculus [11] = test: Hepatoprotective activity in CDAHFD induced C57BL/6N mouse liver injury model assessed as effect on AST level at 15 mg/kg,po qd administration for 4 weeks; type: functional, organism-based
Mus musculus [12] = test: Hepatoprotective activity in CDAHFD induced C57BL/6N mouse liver injury model assessed as effect on ALT level at 15 mg/kg,po qd administration for 4 weeks; type: functional, organism-based

Chain of Collagen alpha-1(I) chain (Homo sapiens) (P02452 whole entry): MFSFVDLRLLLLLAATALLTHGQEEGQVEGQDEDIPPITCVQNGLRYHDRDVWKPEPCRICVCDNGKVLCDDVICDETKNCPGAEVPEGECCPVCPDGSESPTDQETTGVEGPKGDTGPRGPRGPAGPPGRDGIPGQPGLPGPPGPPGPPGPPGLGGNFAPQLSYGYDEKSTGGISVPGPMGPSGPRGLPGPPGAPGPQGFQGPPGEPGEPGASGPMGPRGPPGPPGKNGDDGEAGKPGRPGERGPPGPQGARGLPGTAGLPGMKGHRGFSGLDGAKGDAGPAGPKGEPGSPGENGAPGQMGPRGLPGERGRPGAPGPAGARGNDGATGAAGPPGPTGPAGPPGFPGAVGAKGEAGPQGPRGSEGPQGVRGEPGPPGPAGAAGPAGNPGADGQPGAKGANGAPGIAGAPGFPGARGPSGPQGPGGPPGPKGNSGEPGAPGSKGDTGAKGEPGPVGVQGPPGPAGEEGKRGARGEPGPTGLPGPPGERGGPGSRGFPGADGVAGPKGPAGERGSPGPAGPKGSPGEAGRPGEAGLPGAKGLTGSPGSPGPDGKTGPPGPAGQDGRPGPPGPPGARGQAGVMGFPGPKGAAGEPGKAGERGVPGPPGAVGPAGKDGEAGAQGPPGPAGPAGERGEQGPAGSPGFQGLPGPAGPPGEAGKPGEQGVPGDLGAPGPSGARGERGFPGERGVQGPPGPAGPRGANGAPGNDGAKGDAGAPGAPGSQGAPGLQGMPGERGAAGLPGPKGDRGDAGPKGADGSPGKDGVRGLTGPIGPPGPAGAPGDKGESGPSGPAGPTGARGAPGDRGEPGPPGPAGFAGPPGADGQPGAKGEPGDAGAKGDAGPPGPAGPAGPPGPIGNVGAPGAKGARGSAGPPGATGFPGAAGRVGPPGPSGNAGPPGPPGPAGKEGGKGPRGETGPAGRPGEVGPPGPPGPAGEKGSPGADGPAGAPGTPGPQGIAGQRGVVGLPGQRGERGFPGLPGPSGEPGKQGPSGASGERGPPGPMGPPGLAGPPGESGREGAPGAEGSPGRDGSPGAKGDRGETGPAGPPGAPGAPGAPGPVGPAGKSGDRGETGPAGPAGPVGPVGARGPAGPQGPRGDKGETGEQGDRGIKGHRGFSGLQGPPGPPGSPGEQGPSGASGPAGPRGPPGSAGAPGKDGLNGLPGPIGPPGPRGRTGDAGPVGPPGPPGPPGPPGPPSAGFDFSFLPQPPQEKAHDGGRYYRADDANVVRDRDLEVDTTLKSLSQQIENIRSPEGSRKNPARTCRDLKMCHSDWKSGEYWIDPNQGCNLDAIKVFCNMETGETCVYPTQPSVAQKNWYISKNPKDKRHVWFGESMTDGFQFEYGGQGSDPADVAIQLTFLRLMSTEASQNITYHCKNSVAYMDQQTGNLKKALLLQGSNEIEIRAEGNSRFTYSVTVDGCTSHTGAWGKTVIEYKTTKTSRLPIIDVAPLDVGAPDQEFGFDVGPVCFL

## COc1cc2c(cc1OC)-c1cc3ccc(OC)c(OCc4ccc(Cl)cc4)c3c[n+]1CC2
[1]
  inhibition: 28.9%

## COc1cc2c(cc1OC)-c1c(Cc3cccc(Br)c3)c3ccc(OC)c(OC)c3c[n+]1CC2
[1]
  inhibition: 62.8%
[2]
  CC50: 45.5 µM
COL1A1
  selectivity ratio: 3.06

## COc1cc2c(cc1OC)-c1c(Cc3ccccc3C)c3ccc(OC)c(OC)c3c[n+]1CC2
[1]
  inhibition: 58.4%
[2]
  CC50: 45.6 µM
COL1A1
  selectivity ratio: 3.21

## CCCCCCCOc1c(OC)ccc2cc3[n+](cc12)CCc1cc(OC)c(OC)cc1-3
[1]
  inhibition: 94.4%

## COc1cc2c(cc1OC)-c1c(Cc3cccc(C#N)c3)c3ccc(OC)c(OC)c3c[n+]1CC2
[1]
  inhibition: 4.38%

## O=C(O[C@@H]1Cc2c(O)cc(O)cc2O[C@@H]1c1cc(O)c(O)c(O)c1)c1cc(O)c(O)c(O)c1
[1]
  inhibition: 27.6%

## COc1cc2c(cc1OC)-c1cc3ccc(OC)c(NCc4ccc(Cl)cc4)c3c[n+]1CC2
[1]
  inhibition: 93.6%

## COc1cc2c(cc1OC)-c1cc3ccc(OC)c(OC(=O)c4ccoc4C)c3c[n+]1CC2
[1]
  inhibition: 9.91%

## CCCCCCNc1c(OC)ccc2cc3[n+](cc12)CCc1cc(OC)c(OC)cc1-3
[1]
  inhibition: 71.4%

## CCCNc1c(OC)ccc2cc3[n+](cc12)CCc1cc(OC)c(OC)cc1-3
[1]
  inhibition: 22.6%

## CCCCC(=O)Nc1c(OC)ccc2cc3[n+](cc12)CCc1cc(OC)c(OC)cc1-3
[1]
  inhibition: 0%

## COc1cc2c(cc1OC)-c1cc3ccc(OC)c(OCc4ccc(C(F)(F)F)cc4)c3c[n+]1CC2
[1]
  inhibition: 38.7%

## COc1cc2c(cc1OC)-c1cc3ccc(OC)c(OCC4CC4)c3c[n+]1CC2
[1]
  inhibition: 14%

## COc1cc2c(cc1OC)-c1cc3ccc(OC)c(NCc4ccc(F)cc4)c3c[n+]1CC2
[1]
  inhibition: 23.7%

## COc1cc2c(cc1OC)-c1cc3ccc(OC)c(OCc4ccccc4C#N)c3c[n+]1CC2
[1]
  inhibition: 23%

## COc1cc2c(cc1OC)-c1cc3ccc(OC)c(NCc4cccc(C#N)c4)c3c[n+]1CC2
[1]
  inhibition: 10.5%

## COc1cc2c(cc1OC)-c1cc3ccc(OC)c(OC(=O)c4ccco4)c3c[n+]1CC2
[1]
  inhibition: 0%

## CCCCCOc1c(OC)ccc2cc3[n+](cc12)CCc1cc(OC)c(OC)cc1-3
[1]
  inhibition: 36.7%

## COc1cc2c(cc1OC)-c1c(Cc3cccc(C)c3)c3ccc(OC)c(OC)c3c[n+]1CC2
[1]
  inhibition: 0%

## CCOc1cc2c(cc1OC)-c1cc3ccc(OC)c(NCc4ccc(Br)cc4)c3c[n+]1CC2
[1]
  inhibition: 8.92%

## COc1cc2c(cc1OC)-c1cc3ccc(OC)c(NC(=O)c4ccccc4)c3c[n+]1CC2
[1]
  inhibition: 0%

## COc1cc2c(cc1OC)-c1cc3ccc(OC)c(OC(=O)Cc4ccc(C(F)(F)F)cc4)c3c[n+]1CC2
[1]
  inhibition: 12.4%

## CC[C@H]1[C@@H](O)[C@@H]2[C@H](CC[C@]3(C)[C@@H]([C@H](C)CCC(=O)O)CC[C@@H]23)[C@@]2(C)CC[C@@H](O)C[C@@H]12
Mus musculus [3]
  Activity: Active
Mus musculus [4]
  Activity: Active
Mus musculus [5]
  Activity: Active
Mus musculus [6]
  Activity: inactive
Mus musculus [7]
  Activity: inactive
Mus musculus [8]
  Activity: inactive
Mus musculus [9]
  Activity: inactive
Mus musculus [10]
  Activity: inactive
Mus musculus [11]
  Activity: inactive
Mus musculus [12]
  Activity: inactive

## COc1cc2c(cc1OC)-c1c(Cc3ccc(C(C)C)cc3)c3ccc(OC)c(OC)c3c[n+]1CC2
[1]
  inhibition: 99.9%

## COc1cc2c(cc1OC)-c1cc3ccc(OC)c(NCc4ccccc4)c3c[n+]1CC2
[1]
  inhibition: 25.4%

## COc1cc2c(cc1OC)-c1cc3ccc(OC)c(OCc4ccc(F)cc4)c3c[n+]1CC2
[1]
  inhibition: 10.9%

## COc1cc2c(cc1OC)-c1cc3ccc(OC)c(NC(=O)C4CCCCC4)c3c[n+]1CC2
[1]
  inhibition: 3.33%

## COc1cc2c(cc1OC)-c1c(Cc3ccccc3C#N)c3ccc(OC)c(OC)c3c[n+]1CC2
[1]
  inhibition: 24.9%

## COc1cc2c(cc1OC)-c1cc3ccc(OC)c(NC(=O)C4CCC4)c3c[n+]1CC2
[1]
  inhibition: 18.9%

## COc1cc2c(cc1OC)-c1c(Cc3ccc(C#N)cc3)c3ccc(OC)c(OC)c3c[n+]1CC2
[1]
  inhibition: 16.3%

## CCOc1cc2c(cc1OC)-c1cc3ccc(OC)c(NCc4ccccc4)c3c[n+]1CC2
[1]
  inhibition: 12.4%

## COc1cc2c(cc1OC)-c1cc3ccc(OC)c(OCc4cc(C)cc(C)c4)c3c[n+]1CC2
[1]
  inhibition: 25%

## COc1cc2c(cc1OC)-c1cc3ccc(OC)c(OC(C)c4ccccc4)c3c[n+]1CC2 (stereo not given)
[1]
  inhibition: 22.1%

## COc1cc2c(cc1OC)-c1cc3ccc(OC)c(OCC4CCC4)c3c[n+]1CC2
[1]
  inhibition: 9.25%

## COc1cc2c(cc1OC)-c1c(Cc3ccc(Br)cc3)c3ccc(OC)c(OC)c3c[n+]1CC2
[1]
  inhibition: 85.7%

## COc1cc2c(cc1OC)-c1cc3ccc(OC)c(NC(=O)c4cc(C)nn4C)c3c[n+]1CC2
[1]
  inhibition: 0%

## COc1cc2c(cc1OC)-c1cc3ccc(OC)c(OC(=O)C(=O)c4cccnc4)c3c[n+]1CC2
[1]
  inhibition: 6.07%

## COc1cc(Cc2c3[n+](cc4c(OC)c(OC)ccc24)CCc2cc(OC)c(OC)cc2-3)cc(OC)c1
[1]
  inhibition: 39%

## COc1cc2c(cc1OC)-c1c(Cc3ccc(F)cc3)c3ccc(OC)c(OC)c3c[n+]1CC2
[1]
  inhibition: 22.6%

## COc1ccc(C(=O)Nc2c(OC)ccc3cc4[n+](cc23)CCc2cc(OC)c(OC)cc2-4)cc1
[1]
  inhibition: 2.39%

## COc1cc2c(cc1OC)-c1cc3ccc(OC)c(OCc4ccc(C(C)C)cc4)c3c[n+]1CC2
[1]
  inhibition: 75%
[2]
  CC50: 28.7 µM
COL1A1
  selectivity ratio: 3.66

## COC(=O)/C=C/c1ccc(Cc2c3[n+](cc4c(OC)c(OC)ccc24)CCc2cc(OC)c(OC)cc2-3)cc1
[1]
  inhibition: 0%

## COc1cc2c(cc1OC)-c1cc3ccc(OC)c(OCc4ccc(C#N)cc4)c3c[n+]1CC2
[1]
  inhibition: 5.2%

## CCCCCCCCC(=O)Nc1c(OC)ccc2cc3[n+](cc12)CCc1cc(OC)c(OC)cc1-3
[1]
  inhibition: 16.6%

## CCCCCCCCCOc1c(OC)ccc2cc3[n+](cc12)CCc1cc(OC)c(OC)cc1-3
[1]
  inhibition: 99.9%

## COc1cc2c(cc1OC)-c1cc3ccc(OC)c(NCc4ccc(Br)cc4)c3c[n+]1CC2
[1]
  inhibition: 18.4%

## COc1cc2c(cc1OC)-c1c(Cc3cccc([N+](=O)[O-])c3)c3ccc(OC)c(OC)c3c[n+]1CC2
[1]
  inhibition: 13%

## COc1cc2c(cc1OC)-c1cc3ccc(OC)c(OCc4cccc(C#N)c4)c3c[n+]1CC2
[1]
  inhibition: 24.1%

## COc1ccc(CNc2c(OC)ccc3cc4[n+](cc23)CCc2cc(OC)c(OC)cc2-4)c(OC)c1
[1]
  inhibition: 36%

## COc1cc2c(cc1OC)-c1cc3ccc(OC)c(OCC4CCCC4)c3c[n+]1CC2
[1]
  inhibition: 46%
[2]
  CC50: 64 µM
COL1A1
  selectivity ratio: 2.65

## CCOc1cc2c(cc1OC)-c1cc3ccc(OC)c(NCc4ccc(F)cc4)c3c[n+]1CC2
[1]
  inhibition: 24.8%

## COc1cccc(COc2c(OC)ccc3cc4[n+](cc23)CCc2cc(OC)c(OC)cc2-4)c1
[1]
  inhibition: 21.4%

## COc1cc2c(cc1OC)-c1cc3ccc(OC)c(OCCc4ccc(C(F)(F)F)cc4)c3c[n+]1CC2
[1]
  inhibition: 56.3%
[2]
  CC50: 88.9 µM
COL1A1
  selectivity ratio: 6.05

## COc1ccc(COc2c(OC)ccc3cc4[n+](cc23)CCc2cc(OC)c(OC)cc2-4)cc1OC
[1]
  inhibition: 12.6%

## COC(=O)C(Oc1c(OC)ccc2cc3[n+](cc12)CCc1cc(OC)c(OC)cc1-3)c1ccccc1 (stereo not given)
[1]
  inhibition: 23.4%

## COc1cc2c(cc1OC)-c1cc3ccc(OC)c(OCc4ccccn4)c3c[n+]1CC2
[1]
  inhibition: 15.2%

## COc1cc2c(cc1OC)-c1cc3ccc(OC)c(NC(=O)C4CCCC4)c3c[n+]1CC2
[1]
  inhibition: 10.8%

## CCCC(=O)Nc1c(OC)ccc2cc3[n+](cc12)CCc1cc(OC)c(OC)cc1-3
[1]
  inhibition: 5.11%

## COc1cc2c(cc1OC)-c1c(Cc3cccc(F)c3)c3ccc(OC)c(OC)c3c[n+]1CC2
[1]
  inhibition: 24.8%

## COc1cc2c(cc1OC)-c1cc3ccc(OC)c(OCc4ccc(C)cc4)c3c[n+]1CC2
[1]
  inhibition: 25.6%

## COc1cc2c(cc1OC)-c1cc3ccc(OC)c(NC(=O)c4cccc(F)c4)c3c[n+]1CC2
[1]
  inhibition: 1.12%

## COc1cc2c(cc1OC)-c1cc3ccc(OC)c(NCc4ccc(C)cc4)c3c[n+]1CC2
[1]
  inhibition: 79.2%
[2]
  CC50: 65.5 µM
COL1A1
  selectivity ratio: 5.82

## CCOc1cc2c(cc1OC)-c1cc3ccc(OC)c(NCc4ccc(C)cc4)c3c[n+]1CC2
[1]
  inhibition: 36%

## CCC(=O)Nc1c(OC)ccc2cc3[n+](cc12)CCc1cc(OC)c(OC)cc1-3
[1]
  inhibition: 0%
